The target of assay [1] is T1, SHMT2 (mitochondrial serine hydroxymethyltransferase) (Homo sapiens, UniProt P34897).
T1 sequence (P34897 30-504): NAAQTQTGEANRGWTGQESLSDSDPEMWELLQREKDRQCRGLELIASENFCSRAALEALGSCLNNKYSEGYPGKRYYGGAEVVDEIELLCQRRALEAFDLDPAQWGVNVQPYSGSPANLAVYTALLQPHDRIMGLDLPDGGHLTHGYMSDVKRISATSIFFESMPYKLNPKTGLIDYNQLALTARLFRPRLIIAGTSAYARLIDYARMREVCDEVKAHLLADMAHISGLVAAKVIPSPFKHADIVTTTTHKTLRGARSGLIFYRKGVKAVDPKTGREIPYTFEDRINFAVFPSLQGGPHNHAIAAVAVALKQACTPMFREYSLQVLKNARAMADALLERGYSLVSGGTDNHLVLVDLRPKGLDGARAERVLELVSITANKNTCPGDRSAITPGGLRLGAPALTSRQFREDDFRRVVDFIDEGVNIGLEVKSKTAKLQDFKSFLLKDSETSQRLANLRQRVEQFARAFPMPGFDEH
Put plainly: spectrophotometric quinonoid-intermediate assay ([…] nm) with purified recombinant enzyme, mixed-type inhibition fit; supported by DSF. Format: biochemical. In general terms: In DSF a fluorescence change marks the thermal transition of the protein.

The target in assay [2] is T2, SHMT1 (cytosolic serine hydroxymethyltransferase) (Homo sapiens, UniProt P34896).
T2 sequence (P34896 2-483): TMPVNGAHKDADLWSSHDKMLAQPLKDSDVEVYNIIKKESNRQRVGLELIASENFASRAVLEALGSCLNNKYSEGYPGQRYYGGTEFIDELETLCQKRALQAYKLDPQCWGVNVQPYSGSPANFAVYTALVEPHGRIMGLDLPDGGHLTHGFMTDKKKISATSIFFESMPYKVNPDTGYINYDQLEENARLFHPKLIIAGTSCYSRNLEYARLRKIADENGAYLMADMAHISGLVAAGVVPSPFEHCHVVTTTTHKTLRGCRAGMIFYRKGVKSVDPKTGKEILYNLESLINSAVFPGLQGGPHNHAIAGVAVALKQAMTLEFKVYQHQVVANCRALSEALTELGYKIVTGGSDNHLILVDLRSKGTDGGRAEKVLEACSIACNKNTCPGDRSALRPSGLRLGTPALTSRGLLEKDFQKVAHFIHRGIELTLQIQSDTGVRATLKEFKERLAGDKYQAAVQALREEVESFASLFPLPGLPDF
The assay is described as follows: spectrophotometric quinonoid-intermediate assay ([…] nm) with purified recombinant enzyme. In kind it is biochemical.

In assay [3] the target is T1, SHMT2 (mitochondrial serine hydroxymethyltransferase). The assay is described as follows: DSF titration of apo-enzyme with PLP (Tm vs concentration). Format: binding. Set-up: apo-SHMT2.

Where a name gives a salt, the structure may show the parent alone.

A word on the Ki: it is a measure of affinity in units of concentration, obtained from inhibition or displacement. Take `CN(C)C(=N)N=C(N)N` [MET, 1,1-dimethylbiguanide hydrochloride]: the Ki is 13.3 ± 2.1 mM in assay [1] and 100 ± 33 mM in assay [2].
The term Kd denotes the free concentration of one partner at which half of the binding sites on the other are occupied at equilibrium, for simple one-to-one binding. A low value points to higher affinity. In assay [3], `Cc1ncc(COP(=O)(O)O)c(C=O)c1O` [PLP, pyridoxal-5′-phosphate] came in with a Kd of 0.0003 mM.

These data come from publication PMC8393646, “Metformin Is a Pyridoxal-5′-phosphate (PLP)-Competitive Inhibitor of SHMT2” (Cancers, 2021).
